Measurements reported in patent publication US9670227B2, “Thienopyrimidine derivatives, a process for their preparation and pharmaceutical compositions containing them” (LES LABORATOIRES SERVIER, priority 2013, dated 2017).
Where two headings read alike, the source gives them in different places.

Experiments:
[1] = system: H929 multiple myeloma tumour line; assay: In vitro cytotoxicity, Microculture Tetrazolium Assay; format: cell-based; settings: H929 cells, 48 hours exposure, MTT, read-out: IC50 (μM) MTT H929
Protocol: The cytotoxicity studies were carried out on the H929 multiple myeloma tumour line.
The cells are distributed onto microplates and exposed to the test compounds for 48 hours.

Mcl-1 protein = Mcl-1 protein (UniProtKB primary accession number: Q07820) (Homo sapiens, UniProt Q07820); assay: Inhibition of Mcl-1 by fluorescence polarisation, Method 1; format: binding; settings: for IC50: fluorescence polarisation, Method 1, or Method 2, read-out: IC50 (M) Mcl-1 FP
Outline: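 An 11-point DMSO dilution of compound is mixed with buffer (10 mM HEPES, 150 mM NaCl, 0.05% Tween 20, pH 7.4) carrying 1 nM fluorescein-labelled ligand and 5 nM Mcl-1, final concentrations. Displacement is monitored by fluorescence polarisation.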

Mcl-1 protein, sequence (Q07820 whole entry): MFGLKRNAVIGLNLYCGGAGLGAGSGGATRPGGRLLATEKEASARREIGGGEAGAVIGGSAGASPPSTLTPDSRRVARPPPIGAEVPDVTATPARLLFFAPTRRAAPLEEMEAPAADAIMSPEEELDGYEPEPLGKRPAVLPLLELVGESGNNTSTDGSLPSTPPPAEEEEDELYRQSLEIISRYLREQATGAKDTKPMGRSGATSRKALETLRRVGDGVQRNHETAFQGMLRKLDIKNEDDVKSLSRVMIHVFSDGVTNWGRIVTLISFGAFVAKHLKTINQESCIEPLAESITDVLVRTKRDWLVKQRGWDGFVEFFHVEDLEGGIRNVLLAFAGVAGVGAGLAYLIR

SMILES | IC50 ([1]; Homo sapiens, NCI-H929, 48 h) | IC50 (Mcl-1 protein) | IC50 [1] | percentage fluorescence polarisation inhibition, Mcl-1 FP (Mcl-1 protein; partial inhibitors, @ 10 uM test compound)
CCc1sc2ncnc(OC(Cc3ccccc3)C(=O)O)c2c1-c1ccc(OCCc2cccnc2)c(Cl)c1C [Example 396, (2R)-2-[((5Sa)-5-{3-chloro-2-methyl-4-[2-(pyridin-3-yl)ethoxy]phenyl}-6-ethylthieno[2,3-d]pyrimidin-4-yl)oxy]-3-phenylpropanoic acid] | 16.1 µM | 9.9e-08 M |  | 
CCc1sc2ncnc(OC(Cc3ccccc3)C(=O)O)c2c1-c1ccc(OCCc2ccncc2)c(Cl)c1C [Example 397, (2R)-2-[((5Sa)-5-{3-chloro-2-methyl-4-[2-(pyridin-4-yl)ethoxy]phenyl}-6-ethylthieno[2,3-d]pyrimidin-4-yl)oxy]-3-phenylpropanoic acid] | 15.7 µM | 8e-09 M |  | 
CCCCOc1ccc(-c2c(CC)sc3ncnc(OC(Cc4ccccc4)C(=O)O)c23)c(C)c1Cl [Example 398, (2R)-2-{[(5Sa)-5-(4-butoxy-3-chloro-2-methylphenyl)-6-ethylthieno[2,3-d]pyrimidin-4-yl]oxy}-3-phenylpropanoic acid] | 23.8 µM | 1.5e-06 M |  | 
CCc1sc2ncnc(OC(Cc3ccccc3)C(=O)O)c2c1-c1ccc(OCCCN(C)C)c(Cl)c1C [Example 400, (2R)-2-[((5Sa)-5-{3-chloro-4-[3-(dimethylamino)propoxy]-2-methylphenyl}-6-ethylthieno[2,3-d]pyrimidin-4-yl)oxy]-3-phenylpropanoic acid] | 14.4 µM | 8.4e-08 M |  | 
CCc1sc2ncnc(OC(Cc3ccccc3)C(=O)O)c2c1-c1ccc(OCCCN2CCCC2=O)c(Cl)c1C [Example 401, (2R)-2-[((5Sa)-5-{3-chloro-2-methyl-4-[3-(2-oxopyrrolidin-1-yl)propoxy]phenyl}-6-ethylthieno[2,3-d]pyrimidin-4-yl)oxy]-3-phenylpropanoic acid] | 22.3 µM | 4.9e-08 M |  | 
CCc1sc2ncnc(OC(Cc3ccccc3)C(=O)O)c2c1-c1ccc(OCCCN2CCN(C)CC2)c(Cl)c1C [Example 402, (2R)-2-[((5Sa)-5-{3-chloro-2-methyl-4-[3-(4-methylpiperazin-1-yl)propoxy]phenyl}-6-ethylthieno[2,3-d]pyrimidin-4-yl)oxy]-3-phenylpropanoic acid] | 10.4 µM | 6.6e-08 M |  | 
CCNC(=O)NCCCOc1ccc(-c2c(CC)sc3ncnc(OC(Cc4ccccc4)C(=O)O)c23)c(C)c1Cl [Example 404, (2R)-2-{[(5Sa)-5-(3-chloro-4-{3-[(ethylcarbamoyl)amino]propoxy}-2-methylphenyl)-6-ethylthieno[2,3-d]pyrimidin-4-yl]oxy}-3-phenylpropanoic acid] | 21.6 µM | 5.7e-08 M |  | 
CCc1sc2ncnc(OC(Cc3ccccc3)C(=O)O)c2c1-c1ccc(OCCCS(C)(=O)=O)c(Cl)c1C [Example 406, (2R)-2-[((5Sa)-5-{3-chloro-2-methyl-4-[3-(methylsulfonyl)propoxy]phenyl}-6-ethylthieno[2,3-d]pyrimidin-4-yl)oxy]-3-phenylpropanoic acid] | 21.9 µM | 3.5e-08 M |  | 
CCc1sc2ncnc(OC(Cc3ccccc3)C(=O)O)c2c1-c1ccc(OCCN(C)C)c(Cl)c1C [Example 407, (2R)-2-[((5Sa)-5-{3-chloro-4-[2-(dimethylamino)ethoxy]-2-methylphenyl}-6-ethylthieno[2,3-d]pyrimidin-4-yl)oxy]-3-phenylpropanoic acid] | 7.33 µM | 1.1e-07 M |  | 
CCc1sc2ncnc(O[C@H](Cc3ccccc3)C(=O)O)c2c1-c1ccc(OCCN(C)C)c(Cl)c1C [Example 408, (2R)-2-[((5Ra)-5-{3-chloro-4-[2-(dimethylamino)ethoxy]-2-methylphenyl}-6-ethylthieno[2,3-d]pyrimidin-4-yl)oxy]-3-phenylpropanoic acid] |  |  | 15.9 µM | 26.25% @ 10 uM
CCc1sc2ncnc(O[C@H](Cc3ccccc3)C(=O)O)c2c1-c1ccc(OCCN(C)CCO)c(Cl)c1C [Example 411, (2R)-2-{[(5Sa)-5-(3-chloro-4-{2-[(2-hydroxyethyl)(methyl)amino]ethoxy}-2-methylphenyl)-6-ethylthieno[2,3-d]pyrimidin-4-yl]oxy}-3-phenylpropanoic acid] |  | 3.4e-08 M | 19 µM | 
CCc1sc2ncnc(OC(Cc3ccccc3)C(=O)O)c2c1-c1ccc(OCCN(CCO)CCO)c(Cl)c1C [Example 412, (2R)-2-{[(5Sa)-5-(4-{2-[bis(2-hydroxyethyl)amino]ethoxy}-3-chloro-2-methylphenyl)-6-ethylthieno[2,3-d]pyrimidin-4-yl]oxy}-3-phenylpropanoic acid] | 28.7 µM | 5.1e-08 M |  | 
CCc1sc2ncnc(OC(Cc3ccccc3)C(=O)O)c2c1-c1ccc(OCCN2CCC(O)CC2)c(Cl)c1C [Example 413, (2R)-2-[((5Sa)-5-{3-chloro-4-[2-(4-hydroxypiperidin-1-yl)ethoxy]-2-methylphenyl}-6-ethylthieno[2,3-d]pyrimidin-4-yl)oxy]-3-phenylpropanoic acid] | 15.8 µM | 1.3e-08 M |  | 
CCc1sc2ncnc(OC(Cc3ccccc3)C(=O)O)c2c1-c1ccc(OCCn2ccnc2)c(Cl)c1C [Example 418, (2R)-2-[((5Sa)-5-{3-chloro-4-[2-(1H-imidazol-1-yl)ethoxy]-2-methylphenyl}-6-ethylthieno[2,3-d]pyrimidin-4-yl)oxy]-3-phenylpropanoic acid] | 13.3 µM | 5.6e-08 M |  | 
CCc1sc2ncnc(OC(Cc3ccccc3)C(=O)O)c2c1-c1ccc(OCCN2CCNC2=O)c(Cl)c1C [Example 419, (2R)-2-[((5Sa)-5-{3-chloro-2-methyl-4-[2-(2-oxoimidazolidin-1-yl)ethoxy]phenyl}-6-ethylthieno[2,3-d]pyrimidin-4-yl)oxy]-3-phenylpropanoic acid] | 21.5 µM | 3.4e-08 M |  | 
CCc1sc2ncnc(OC(Cc3ccccc3)C(=O)O)c2c1-c1ccc(OCCN2CCOCC2)c(Cl)c1C [Example 420, (2R)-2-[((5Sa)-5-{3-chloro-2-methyl-4-[2-(morpholin-4-yl)ethoxy]phenyl}-6-ethylthieno[2,3-d]pyrimidin-4-yl)oxy]-3-phenylpropanoic acid] | 15.6 µM | 4e-08 M |  | 
CCc1sc2ncnc(OC(Cc3ccccc3)C(=O)O)c2c1-c1ccc(OCCNC(C)=O)c(Cl)c1C [Example 422, (2R)-2-[((5Sa)-5-{4-[2-(acetylamino)ethoxy]-3-chloro-2-methylphenyl}-6-ethylthieno[2,3-d]pyrimidin-4-yl)oxy]-3-phenylpropanoic acid] | 14.4 µM | 1.4e-08 M |  | 
CCc1sc2ncnc(OC(Cc3ccccc3)C(=O)O)c2c1-c1cc(CN2CCN(C)CC2)c(OC)c(Cl)c1C [Example 434, (2R)-2-[((5Sa)-5-{3-chloro-4-methoxy-2-methyl-5-[(4-methylpiperazin-1-yl)methyl]phenyl}-6-ethylthieno[2,3-d]pyrimidin-4-yl)oxy]-3-phenylpropanoic acid] | 11.3 µM | 1.7e-07 M |  | 
CCc1sc2ncnc(OC(Cc3ccccc3)C(=O)O)c2c1-c1cc([N+](=O)[O-])c(OCCN2CCN(C)CC2)c(Cl)c1C [Example 435, (2R)-2-[((5Sa)-5-{3-chloro-2-methyl-4-[2-(4-methylpiperazin-1-yl)ethoxy]-5-nitrophenyl}-6-ethylthieno[2,3-d]pyrimidin-4-yl)oxy]-3-phenylpropanoic acid] | 11.1 µM | 3.2e-07 M |  | 
CCc1sc2ncnc(OC(Cc3ccccc3)C(=O)O)c2c1-c1cc(Cl)c(OCCN2CCN(C)CC2)c(Cl)c1C [Example 436, (2R)-2-[((5Sa)-5-{3,5-dichloro-2-methyl-4-[2-(4-methylpiperazin-1-yl)ethoxy]phenyl}-6-ethylthieno[2,3-d]pyrimidin-4-yl)oxy]-3-phenylpropanoic acid] | 15.1 µM | 2.9e-08 M |  | 
CCc1sc2ncnc(OC(Cc3ccccc3)C(=O)O)c2c1-c1cc(N)c(OCCN2CCN(C)CC2)c(Cl)c1C [Example 437, (2R)-2-[((5Sa)-5-{5-amino-3-chloro-2-methyl-4-[2-(4-methylpiperazin-1-yl)ethoxy]phenyl}-6-ethylthieno[2,3-d]pyrimidin-4-yl)oxy]-3-phenylpropanoic acid] | 20.3 µM | 4.5e-08 M |  | 
CCc1sc2ncnc(OC(Cc3ccccc3)C(=O)O)c2c1-c1cc2nc(CN3CCN(C)CC3)oc2c(Cl)c1C [Example 445, (2R)-2-[((5Sa)-5-{7-chloro-6-methyl-2-[(4-methylpiperazin-1-yl)methyl]-1,3-benzoxazol-5-yl}-6-ethylthieno[2,3-d]pyrimidin-4-yl)oxy]-3-phenylpropanoic acid] | 21 µM | 1.3e-07 M |  | 
CCc1sc2ncnc(OC(Cc3ccccc3)C(=O)O)c2c1-c1cc2nc(CN3CCOCC3)oc2c(Cl)c1C [Example 446, (2R)-2-({(5Sa)-5-[7-chloro-6-methyl-2-(morpholin-4-ylmethyl)-1,3-benzoxazol-5-yl]-6-ethylthieno[2,3-d]pyrimidin-4-yl}oxy)-3-phenylpropanoic acid] | 25.7 µM | 1.1e-07 M |  | 
CCc1sc2ncnc(OC(Cc3ccccc3OCc3ccnc(OC)n3)C(=O)O)c2c1-c1ccc(OCCN2CCN(C)CC2)c(Cl)c1C [Example 455, (2R)-2-[((5Sa)-5-{3-chloro-2-methyl-4-[2-(4-methylpiperazin-1-yl)ethoxy]phenyl}-6-ethylthieno[2,3-d]pyrimidin-4-yl)oxy]-3-{2-[(2-methoxypyrimidin-4-yl)methoxy]phenyl}propanoic acid] | 0.339 µM | 6.2e-09 M |  | 
